Molecules are shown by their SMILES. Read-outs that look alike come from different tables or passages of the source.

Assay [1] has as its system human colorectal HT-29 tumor cell line. The experiment in a line: Tumor cell growth assay (Cell Titer Glo). The conditions noted are these: read-out: IC50 μM against HT-29. Type of assay: cell-based.
Another assay deals with COX1 (Ovis aries (Sheep), UniProt P05979). The assay is described as follows: COX-1 activity, colorimetric assay. Type of assay: biochemical, ovine. Particulars: screening dose 100 μM; read-out: IC50 μM against COX1. The procedure:
(§1) Compounds according to the present disclosure were tested for their in vitro ability to inhibit recombinant human PDE5, COX1 and COX2 enzymes at screening doses of 50, 100 and 100 μM respectively.
(§2) COX-1 and COX-2 activities were measured using purified ovine COX-1 and COX-2 with colorimetric assay kits obtained from Cayman Chemical Co. (Ann Arbor, Mich.). The activities of COX-1 and COX-2 were measured after the addition of arachidonic acid and incubation at 25° C. for 5 min by absorbance at 590 nm as specified by the manufacturer.

The target in the next assay is COX2 (Ovis aries (Sheep), UniProt P79208). The experiment in a line: COX-2 activity, colorimetric assay. Type of assay: biochemical, ovine. Particulars: screening dose 100 μM; read-out: IC50 μM against COX2. As for the experimental part:
as §1, §2

Another assay has as its target recombinant human PDE5 (Homo sapiens (Human), UniProt O76074). The assay is described as follows: PDE5 inhibition, IMAP fluorescence polarization assay. The format is biochemical. The conditions noted are these: read-out: IC50 μM against PDE5. The procedure: as §1
PDE activity was measured using the IMAP fluorescence polarization assay (Molecular Devices) in which binding of hydrolyzed cyclic nucleotide substrate to immobilized metal coordination complexes increases fluorescence polarization (FP). Tetramethylrhodamine (TAMRA)-cGMP and fluorescein-cAMP were used as substrates, each at final concentration of 50 nmol/L. The PDE assay was done according to the manufacturer's specifications using either whole cell lysates or recombinant enzymes.

Assay [2] relates to human breast MDA-MB-231 tumor cell line. The assay is described as follows: Tumor cell growth assay (Cell Titer Glo). Particulars: read-out: IC50 μM against MDA-MB-231. Type of assay: cell-based. Background: In ATP-based viability assays light output follows the ATP content of the culture.
The mark [3] stands for this setting: recombinant human PDE5, IC50 determined if inhibition >50% at 50 μM screening dose.

Chain of COX2 (P79208 17-603): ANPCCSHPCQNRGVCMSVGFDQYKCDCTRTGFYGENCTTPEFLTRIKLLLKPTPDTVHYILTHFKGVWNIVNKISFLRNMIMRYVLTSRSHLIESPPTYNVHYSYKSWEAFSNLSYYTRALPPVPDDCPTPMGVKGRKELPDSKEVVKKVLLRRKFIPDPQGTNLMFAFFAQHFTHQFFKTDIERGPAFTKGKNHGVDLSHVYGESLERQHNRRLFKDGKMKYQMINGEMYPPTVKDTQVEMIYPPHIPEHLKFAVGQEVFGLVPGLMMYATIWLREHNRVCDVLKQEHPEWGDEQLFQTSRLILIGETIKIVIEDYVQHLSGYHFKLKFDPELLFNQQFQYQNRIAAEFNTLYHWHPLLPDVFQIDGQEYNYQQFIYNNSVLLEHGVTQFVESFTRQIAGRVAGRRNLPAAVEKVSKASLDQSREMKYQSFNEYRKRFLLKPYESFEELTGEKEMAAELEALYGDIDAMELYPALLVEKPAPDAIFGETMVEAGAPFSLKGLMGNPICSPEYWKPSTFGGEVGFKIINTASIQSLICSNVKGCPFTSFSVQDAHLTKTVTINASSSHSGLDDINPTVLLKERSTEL
Chain of COX1 (P05979 25-600): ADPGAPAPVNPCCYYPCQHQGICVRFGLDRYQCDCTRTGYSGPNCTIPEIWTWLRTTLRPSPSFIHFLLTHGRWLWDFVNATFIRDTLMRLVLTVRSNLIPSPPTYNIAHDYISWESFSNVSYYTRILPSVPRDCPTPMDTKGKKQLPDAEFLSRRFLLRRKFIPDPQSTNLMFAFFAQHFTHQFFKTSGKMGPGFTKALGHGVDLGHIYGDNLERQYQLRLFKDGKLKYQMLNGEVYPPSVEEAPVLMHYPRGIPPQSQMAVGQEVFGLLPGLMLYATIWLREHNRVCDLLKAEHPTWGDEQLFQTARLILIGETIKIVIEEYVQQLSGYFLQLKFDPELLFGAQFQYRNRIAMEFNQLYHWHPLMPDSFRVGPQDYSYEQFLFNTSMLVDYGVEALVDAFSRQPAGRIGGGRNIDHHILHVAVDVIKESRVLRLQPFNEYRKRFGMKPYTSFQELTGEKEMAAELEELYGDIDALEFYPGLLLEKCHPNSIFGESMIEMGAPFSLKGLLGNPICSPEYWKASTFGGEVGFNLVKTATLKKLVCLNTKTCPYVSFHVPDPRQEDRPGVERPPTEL

As a reminder, the IC50 is the point on the concentration scale where inhibition reaches its midpoint. Take `COc1ccc(C2CC(C(C)(C)C)=NN2c2ccc(C(=O)O)cc2)cc1` (stereo not drawn) [Compound 1, 4-(3-tert-Butyl-5-(4-methoxyphenyl)-4,5-dihydro-1H-pyrazol-1-yl)benzoic acid]: the IC50 in assay [1] (HT-29, 72 hours) is greater than 50 µM; on COX1, greater than 100 µM; on COX2, greater than 100 µM; on recombinant human PDE5 (setting [3]), 2.02 µM; in assay [2] (MDA-MB-231, 72 hours) it was greater than 50 µM.

Take `CC(C)(C)C1=NN(c2ccc(C(=O)O)cc2)C(c2ccc([N+](=O)[O-])cc2)C1` (stereo not drawn) [Compound 2, 4-(3-tert-Butyl-5-(4-nitrophenyl)-4,5-dihydro-1H-pyrazol-1-yl)benzoic acid]: the IC50 was greater than 50 µM in assay [1] (HT-29, 72 hours); greater than 100 µM at COX1; greater than 100 µM at COX2; 5.7 µM at recombinant human PDE5 (setting [3]); greater than 50 µM in assay [2] (MDA-MB-231, 72 hours).

For the molecule `CC(C)(C)C1=NN(c2ccc(C(=O)O)cc2)C(c2cccc([N+](=O)[O-])c2)C1` (stereo not drawn) [Compound 3, 4-(3-tert-Butyl-5-(3-nitrophenyl)-4,5-dihydro-1H-pyrazol-1-yl)benzoic acid], the IC50 was greater than 50 µM in assay [1] (72 hours); greater than 100 µM on COX1; greater than 100 µM on COX2; 3.2 µM on recombinant human PDE5 (setting [3]); greater than 50 µM in assay [2] (72 hours).

On to `COc1ccc(C2CC(C(C)(C)C)=NN2c2ccc(C(=O)O)cc2)c(OC)c1` (stereo not drawn) [Compound 4, 4-(3-tert-Butyl-5-(2,4-dimethoxyphenyl)-4,5-dihydro-1H-pyrazol-1-yl)benzoic acid], for which the IC50 in assay [1] (HT-29, 72 hours) was greater than 50 µM; on COX1, greater than 100 µM; at COX2, greater than 100 µM; on recombinant human PDE5, 23.5 µM; in assay [2] (MDA-MB-231, 72 hours) it was greater than 50 µM.

Regarding `CC(C)(C)C1=NN(c2ccc(C(=O)O)cc2)C(c2ccc(O)cc2)C1` (stereo not drawn) [Compound 5, 4-(3-tert-Butyl-5-(4-hydroxyphenyl)-4,5-dihydro-1H-pyrazol-1-yl)benzoic acid], the 50% inhibitory concentration (IC50) is greater than 50 µM in assay [1] (HT-29, 72 hours); greater than 100 µM on COX1; greater than 100 µM on COX2; 2.1 µM at recombinant human PDE5 (setting [3]); greater than 50 µM in assay [2] (MDA-MB-231, 72 hours).

Consider `CC(C)(C)C1=NN(c2cccc(C(=O)O)c2)C(c2ccc(Cl)cc2)C1` (stereo not drawn) [Compound 6, 3-(3-tert-Butyl-5-(4-chlorophenyl)-4,5-dihydro-4H-pyrazol-1-yl)benzoic acid], for which the half-maximal inhibitory concentration (IC50) is 39.9 µM in assay [1] (HT-29, 72 hours); greater than 100 µM on COX1; greater than 100 µM at COX2; 9.9 µM at recombinant human PDE5 (setting [3]); greater than 50 µM in assay [2] (MDA-MB-231, 72 hours).

As to `COc1ccc(C2CC(c3ccccc3)=NN2c2ccc(C(=O)O)cc2)cc1` (stereo not drawn) [Compound 7, 4-(5-(4-Methoxyphenyl)-3-phenyl-4,5-dihydro-1H-pyrazol-1-yl)benzoic acid], the IC50 is 36.7 µM in assay [1] (HT-29, 72 hours); greater than 100 µM at COX1; greater than 100 µM on COX2; 1.2 µM at recombinant human PDE5 (setting [3]); 48 µM in assay [2] (MDA-MB-231, 72 hours).

`COc1ccc(C2CC(c3ccccc3OC)=NN2c2ccc(C(=O)O)cc2)cc1` (stereo not drawn) [Compound 8, 4-(3-(2-Methoxyphenyl)-5-(4-methoxyphenyl)-4,5-dihydro-1H-pyrazol-1-yl)benzoic acid]: the IC50 in assay [1] (HT-29, 72 hours) was greater than 50 µM; on COX1, greater than 100 µM; on COX2 it was greater than 100 µM; on recombinant human PDE5 (setting [3]), 3.2 µM; in assay [2] (MDA-MB-231, 72 hours), greater than 50 µM.

Regarding `COc1ccc(C2CC(c3cccc(OC)c3)=NN2c2ccc(C(=O)O)cc2)cc1` (stereo not drawn) [Compound 9, 4-(3-(3-Methoxyphenyl)-5-(4-methoxyphenyl)-4,5-dihydro-1H-pyrazol-1-yl)benzoic acid], the IC50 in assay [1] (HT-29, 72 hours) was 25.9 µM; on COX1, greater than 100 µM; on COX2, greater than 100 µM; at recombinant human PDE5 (setting [3]), 1.8 µM; in assay [2] (MDA-MB-231, 72 hours) it was 45.6 µM.

For the molecule `COc1ccc(C2CC(c3ccc(OC)c(OC)c3)=NN2c2ccc(C(=O)O)cc2)cc1` (stereo not drawn) [Compound 10, 4-(3-(3,4-Dimethoxyphenyl)-5-(4-methoxyphenyl)-4,5-dihydro-1H-pyrazol-1-yl)benzoic acid], the IC50 is 42.5 µM in assay [1] (HT-29, 72 hours); greater than 100 µM on COX1; greater than 100 µM at COX2; 6.9 µM at recombinant human PDE5 (setting [3]); greater than 50 µM in assay [2] (MDA-MB-231, 72 hours).

For the molecule `COc1ccc(C2CC(c3ccccc3)=NN2c2ccc(S(N)(=O)=O)cc2)cc1` (stereo not drawn) [Compound 11, 4-(5-(4-Methoxyphenyl)-3-phenyl-4,5-dihydro-1H-pyrazol-1-yl)benzenesulfonamide], the IC50 in assay [1] (HT-29, 72 hours) was 15.6 µM; on COX1, greater than 100 µM; on COX2, greater than 100 µM; at recombinant human PDE5 (setting [3]) it was 3.8 µM; in assay [2] (MDA-MB-231, 72 hours), 27.6 µM.

For the molecule `CC(C)(C)C1=NN(c2ccc(C(=O)O)cc2)C(c2ccc(Cl)c(Cl)c2)C1` (stereo not drawn) [Compound 13, 4-(3-(tert-Butyl)-5-(3,4-dichlorophenyl)-4,5-dihydro-1H-pyrazol-1-yl)benzoic acid], the IC50 in assay [1] (HT-29, 72 hours) is 25.7 µM; on COX1, greater than 100 µM; at COX2, greater than 100 µM; at recombinant human PDE5 (setting [3]), 5.5 µM; in assay [2] (MDA-MB-231, 72 hours) it was greater than 50 µM.

Turning to `CC(C)(C)C1=NN(c2ccc(C(=O)O)cc2)C(c2ccccc2Br)C1` (stereo not drawn) [Compound 14, 4-(5-(2-Bromophenyl)-3-(tert-butyl)-4,5-dihydro-1H-pyrazol-1-yl)benzoic acid], the IC50 in assay [1] (HT-29, 72 hours) is 39.6 µM; at COX1, greater than 100 µM; on COX2, greater than 100 µM; at recombinant human PDE5 (setting [3]), 6.9 µM; in assay [2] (MDA-MB-231, 72 hours), greater than 50 µM.

With `CCOc1ccc(C2CC(C(C)(C)C)=NN2c2ccc(C(=O)O)cc2)cc1` (stereo not drawn) [Compound 15, 4-(3-(tert-Butyl)-5-(4-ethoxyphenyl)-4,5-dihydro-1H-pyrazol-1-yl)benzoic acid], the concentration for half-maximal inhibition (IC50) was 6 µM in assay [1] (HT-29, 72 hours); greater than 100 µM at COX1; greater than 100 µM at COX2; 2.9 µM on recombinant human PDE5 (setting [3]); greater than 50 µM in assay [2] (MDA-MB-231, 72 hours).

As to `CC(C)(C)C1=NN(c2ccc(C(=O)O)cc2)C(c2cccc(Br)c2)C1` (stereo not drawn) [Compound 16, 4-(5-(3-Bromophenyl)-3-(tert-butyl)-4,5-dihydro-1H-pyrazol-1-yl)benzoic acid], the IC50 is 8.8 µM in assay [1] (HT-29, 72 hours); greater than 100 µM at COX1; greater than 100 µM at COX2; 3.1 µM on recombinant human PDE5 (setting [3]); greater than 50 µM in assay [2] (MDA-MB-231, 72 hours).

Consider `CC(C)(C)C1=NN(c2ccc(C(=O)O)cc2)C(c2ccccc2Cl)C1` (stereo not drawn) [Compound 17, 4-(3-(tert-Butyl)-5-(2-chlorophenyl)-4,5-dihydro-1H-pyrazol-1-yl)benzoic acid], for which the IC50 in assay [1] (HT-29, 72 hours) was 20.8 µM; on COX1 it was greater than 100 µM; at COX2, greater than 100 µM; at recombinant human PDE5 (setting [3]), 1.9 µM; in assay [2] (MDA-MB-231, 72 hours) it was greater than 50 µM.

In the case of `CC(C)(C)C1=NN(c2ccc(C(=O)O)cc2)C(c2ccccc2F)C1` (stereo not drawn) [Compound 18, 4-(3-(tert-Butyl)-5-(2-fluorophenyl)-4,5-dihydro-1H-pyrazol-1-yl)benzoic acid], the IC50 in assay [1] (HT-29, 72 hours) was greater than 50 µM; on COX1, greater than 100 µM; at COX2, greater than 100 µM; on recombinant human PDE5 (setting [3]), 3.3 µM; in assay [2] (MDA-MB-231, 72 hours) it was greater than 50 µM.

In the case of `CC(C)(C)C1=NN(c2ccc(C(=O)O)cc2)C(c2cccc(F)c2)C1` (stereo not drawn) [Compound 19, 4-(3-(tert-Butyl)-5-(3-fluorophenyl)-4,5-dihydro-1H-pyrazol-1-yl)benzoic acid], the IC50 in assay [1] (HT-29, 72 hours) is greater than 50 µM; on COX1, greater than 100 µM; on COX2 it was greater than 100 µM; on recombinant human PDE5 (setting [3]), 2.7 µM; in assay [2] (MDA-MB-231, 72 hours), greater than 50 µM.

Source of the values: US9388139B2, “Derivatives of celeboxib, use thereof and preparation thereof” (German University, priority 2011, dated 2016).
